Source: ChEMBL document CHEMBL3044865, “Herbicidal Activity and Characteristics of Pyraflufen-ethyl for Controlling Broad-leaved Weeds in Cereals” (J Pestic Sci, 2002)
The source made the active and inactive calls. The rule behind the calls is not given here.

Legend:
Triticum aestivum [1] = test: Phytotoxicity in Triticum aestivum (wheat) assessed as injury at 300 g/ha pre emergence application measured after 21 days after treatment; format: organism-based; settings: in vivo, other, 504 h
Avena fatua [2] = test: Herbicidal activity against Avena fatua assessed as killing at 0.3 g/ha post emergence application measured after 21 days after treatment; format: functional, organism-based
Hordeum vulgare = test: Phytotoxicity in Hordeum vulgare (barley) assessed as injury at 0.3 g/ha post emergence application measured after 21 days after treatment; format: organism-based; settings: in vivo, other, 504 h
[3] = target: T1, Protoporphyrinogen oxidase (Medicago truncatula) (UniProt G7L3C0); test: Inhibition of Viola arvensis protoporphyrinogen oxidase by post-emergence herbicidal activity assay
T1 sequence (whole entry): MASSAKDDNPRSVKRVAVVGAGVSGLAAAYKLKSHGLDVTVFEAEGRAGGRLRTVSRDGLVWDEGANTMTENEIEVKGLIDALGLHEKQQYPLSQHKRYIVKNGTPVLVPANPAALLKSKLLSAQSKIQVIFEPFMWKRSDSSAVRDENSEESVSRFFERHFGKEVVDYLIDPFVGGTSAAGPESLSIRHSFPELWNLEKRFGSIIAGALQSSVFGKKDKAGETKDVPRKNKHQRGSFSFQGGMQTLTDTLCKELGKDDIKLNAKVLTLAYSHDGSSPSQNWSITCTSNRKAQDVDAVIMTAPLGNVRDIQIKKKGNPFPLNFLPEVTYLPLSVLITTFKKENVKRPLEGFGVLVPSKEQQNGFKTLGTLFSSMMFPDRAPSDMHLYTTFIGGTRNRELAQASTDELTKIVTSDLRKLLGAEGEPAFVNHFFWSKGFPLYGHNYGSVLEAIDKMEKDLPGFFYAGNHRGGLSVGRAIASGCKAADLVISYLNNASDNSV

Veronica hederifolia [4] = test: Herbicidal activity against Veronica hederaefolia assessed as killing at 3 g/ha post emergence application measured after 21 days after treatment; format: functional
[5] = target: T2, Protoporphyrinogen oxidase 2 (Spinacia oleracea) (UniProt Q94IG7); test: Inhibition of Stellaria media protoporphyrinogen oxidase by post-emergence herbicidal activity assay
T2 sequence (whole entry): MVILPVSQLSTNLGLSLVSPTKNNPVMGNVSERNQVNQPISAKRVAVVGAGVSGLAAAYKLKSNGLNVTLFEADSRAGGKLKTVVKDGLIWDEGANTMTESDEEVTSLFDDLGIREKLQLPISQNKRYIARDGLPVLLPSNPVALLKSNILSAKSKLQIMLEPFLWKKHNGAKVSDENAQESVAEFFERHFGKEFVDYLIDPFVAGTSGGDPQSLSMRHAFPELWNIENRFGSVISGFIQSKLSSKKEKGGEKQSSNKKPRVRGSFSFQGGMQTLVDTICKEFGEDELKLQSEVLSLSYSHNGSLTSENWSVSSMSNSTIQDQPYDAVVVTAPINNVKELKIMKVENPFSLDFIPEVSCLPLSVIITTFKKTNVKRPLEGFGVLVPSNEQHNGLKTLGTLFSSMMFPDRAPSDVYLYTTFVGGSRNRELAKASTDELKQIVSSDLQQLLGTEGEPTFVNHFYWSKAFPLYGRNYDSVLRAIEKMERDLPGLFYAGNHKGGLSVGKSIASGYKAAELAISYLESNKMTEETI

Veronica hederifolia [6] = test: Herbicidal activity against Veronica hederaefolia assessed as killing at 30 g/ha post emergence application measured after 21 days after treatment; format: functional
Triticum aestivum [7] = test: Phytotoxicity in Triticum aestivum (wheat) assessed as injury at 1 g/ha post emergence application measured after 21 days after treatment; format: organism-based; settings: in vivo, other, 504 h
Avena fatua [8] = test: Herbicidal activity against Avena fatua assessed as killing at 10 g/ha post emergence application measured after 21 days after treatment; format: functional
Avena fatua [9] = test: Herbicidal activity against Avena fatua assessed as killing at 30 g/ha post emergence application measured after 21 days after treatment; format: functional, organism-based
Stellaria media = test: Herbicidal activity against Stellaria media assessed as killing at 10 g/ha post emergence application measured after 21 days after treatment; format: functional
Veronica hederifolia [10] = test: Herbicidal activity against Veronica hederaefolia assessed as killing at 10 g/ha pre emergence application measured after 21 days after treatment; format: functional

## CCOC(=O)COc1cc(-c2nn(C)c(OC(F)F)c2Cl)c(F)cc1Cl [PYRAFLUFEN-ETHYL]
Triticum aestivum [1]
  Activity: 11%
Avena fatua [2]
  Activity: inactive
Hordeum vulgare
  Activity: Non-toxic
[3]
  ED90: 5 gAi/ha
Veronica hederifolia [4]
  Activity: 100%
[5]
  ED90: 0.3 gAi/ha
Veronica hederifolia [6]
  Activity: 11%
Triticum aestivum [7]
  Activity: Non-toxic
Avena fatua [8]
  Activity: 21%
Avena fatua [9]
  Activity: inactive
Stellaria media
  Activity: 100%
Veronica hederifolia [10]
  Activity: 1%
